Key:
human TRPM8 = biological target: T1, human TRPM8 (Homo sapiens, UniProt Q7Z2W7); test: Luminescence readout assay for measuring intracellular calcium (aequorin), hTRPM8 antagonism; type: cell-based; conditions: CHO cell line expressing human TRPM8 and aequorin; activation by icilin, L-menthol or cold buffer (table does not say which)
T1 construct: expressed in transfected cells; host or cells: Chinese hamster ovary (CHO) cells, T-REx tetracycline-inducible expression system (Invitrogen), co-transfected with pcDNA3.1 jellyfish aequorin

male C57BL/6 mice = test: Inhibition of icilin induced jumping in mice; type: in vivo; conditions: given 1 hour before icilin (i.p. 20 mg/kg), jumps counted 10 minutes post-icilin
Procedure: Icilin Biochemical Challenge Models
Inhibition of Icilin Induced Jumping in Mice
Example compounds at doses ranging from 0.01 to 10 mg/kg were administered to male C57BL/6 mice (18-25 g, Taconic, n=10/treatment) 1 hour before icilin to assess the ability to block the spontaneous jumps induced by icilin (i.p. suspended in 100% PEG400 at 20 mg/kg, 5 mL/kg). The total number of jumps was recorded during the 10 minutes post-icilin administration based on the number of photocell beam breaks from the vertical array of open field boxes (Kinder Scientific) while movement of the mice was restricted within a clear Plexiglas® cylinder 9.5 cm diameter×30 cm height.

T1 sequence (Q7Z2W7 whole entry): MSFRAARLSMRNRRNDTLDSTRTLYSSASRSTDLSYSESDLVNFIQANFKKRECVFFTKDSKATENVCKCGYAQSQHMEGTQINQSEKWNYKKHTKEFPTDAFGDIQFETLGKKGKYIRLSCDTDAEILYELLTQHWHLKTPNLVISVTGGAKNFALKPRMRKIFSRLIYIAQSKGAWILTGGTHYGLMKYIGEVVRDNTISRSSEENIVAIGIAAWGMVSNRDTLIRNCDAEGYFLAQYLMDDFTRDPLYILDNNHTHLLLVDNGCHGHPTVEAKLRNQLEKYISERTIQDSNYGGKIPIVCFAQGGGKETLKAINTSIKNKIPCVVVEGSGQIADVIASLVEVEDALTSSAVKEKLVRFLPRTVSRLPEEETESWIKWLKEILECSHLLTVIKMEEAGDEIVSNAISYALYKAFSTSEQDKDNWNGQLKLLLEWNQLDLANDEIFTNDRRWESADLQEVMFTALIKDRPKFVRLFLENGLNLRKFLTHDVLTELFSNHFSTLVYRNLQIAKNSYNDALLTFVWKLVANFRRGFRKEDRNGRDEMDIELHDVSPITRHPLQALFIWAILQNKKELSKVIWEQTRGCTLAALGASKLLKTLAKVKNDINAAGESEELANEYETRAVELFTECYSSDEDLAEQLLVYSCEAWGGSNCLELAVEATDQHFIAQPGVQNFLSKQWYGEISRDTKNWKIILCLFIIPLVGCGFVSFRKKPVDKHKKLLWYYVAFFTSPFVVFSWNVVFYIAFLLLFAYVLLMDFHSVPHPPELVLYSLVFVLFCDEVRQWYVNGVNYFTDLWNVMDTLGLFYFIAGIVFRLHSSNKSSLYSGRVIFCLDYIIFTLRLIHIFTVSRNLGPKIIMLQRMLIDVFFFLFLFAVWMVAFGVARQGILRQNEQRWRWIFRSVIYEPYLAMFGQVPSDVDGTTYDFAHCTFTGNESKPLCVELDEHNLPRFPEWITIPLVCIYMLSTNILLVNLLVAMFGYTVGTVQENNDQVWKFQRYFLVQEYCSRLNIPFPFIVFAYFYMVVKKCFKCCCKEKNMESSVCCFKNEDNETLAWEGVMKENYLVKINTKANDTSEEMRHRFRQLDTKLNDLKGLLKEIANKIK

SMILES	IC50 (human TRPM8) [nM]	% Inhibition of Mouse Jumping (male C57BL/6 mice; dose 10 mg/kg) [%]	% Inhibition of Mouse Jumping (male C57BL/6 mice; dose 3 mg/kg) [%]
O=C(Nc1cccnc1)N[C@@H](c1ccc(C(F)(F)F)c(F)c1)c1ncccc1C(F)(F)F [Example 1, (S)-1-((3-Fluoro-4-(trifluoromethyl)phenyl)(3-(trifluoromethyl)-pyridin-2-yl)methyl)-3-(pyridin-3-yl)urea bis(2,2,2-trifluoroacetate)]	23	75	–
C[C@H](NC(=O)N[C@@H](c1ccc(C(F)(F)F)c(F)c1)c1ncccc1C(F)(F)F)C(F)(F)F [Example 151, 1-((S)-(3-fluoro-4-(trifluoro-methyl)-phenyl)(3-(trifluoro-methyl)-pyridin-2-yl)-methyl)-3-((S)-1,1,1-trifluoro-propan-2-yl)-urea (2,2,2-trifluoro-acetate)]	39	–	30
CC#Cc1cccnc1[C@@H](NC(=O)Nc1cccnc1)c1ccc(C(F)(F)F)cc1 [Example 51, (S)-1-((3-(prop-1-yn-1-yl)pyridin-2-yl)(4-(trifluoro-methyl)-phenyl)-methyl)-3-(pyridin-3-yl)-urea]	37	76	–
O=C(Nc1cccnc1)N[C@@H](c1ccc(C(F)(F)F)c(F)c1)c1ncccc1F [Example 29, (S)-1-((3-fluoro-4-(trifluoro-methyl)-phenyl)(3-fluoropyridin-2-yl)methyl)-3-(pyridin-3-yl)urea]	17	96	–
CC1(C)C[C@H]1c1cccnc1[C@@H](NC(=O)Nc1cccnc1)c1ccc(C(F)(F)F)cc1 [Example 61, 1-((S)-(3-((R)-2,2-dimethylcyclopropyl)-pyridin-2-yl)-(4-(trifluoro-methyl)-phenyl)-methyl)-3-(pyridin-3-yl)-urea]	62	90	–
O=C(N[C@@H](c1ccc(OC(F)(F)F)c(F)c1)c1ncccc1F)OC1CCOCC1 [Example 176, (S)-tetrahydro-2H-pyran-4-yl ((3-fluoro-4-(trifluoromethoxy)phenyl)(3-fluoropyridin-2-yl)methyl)carbamate]	211	–	–
O=C(Nc1ccc(F)cc1)N[C@@H](c1ccc(C(F)(F)F)cc1)c1ncccc1C(F)(F)F [Example 47, (S)-1-(4-fluorophenyl)-3-((4-(trifluoro-methyl)-phenyl)(3-(trifluoro-methyl)-pyridin-2-yl)-methyl)urea]	98	–	–
COc1ncc(NC(=O)N[C@@H](c2ccc(C(F)(F)F)cc2)c2ncccc2C(F)(F)F)cn1 [Example 159, (S)-1-(2-Methoxypyrimidin-5-yl)-3-((4-(trifluoromethyl)-phenyl)(3-(trifluoromethyl)pyridin-2-yl)methyl)urea]	407	–	–
CCOC(=O)NC(=O)N[C@@H](c1ccc(C(F)(F)F)cc1)c1ncccc1C(F)(F)F [Example 81]	496	–	–
O=C(Nc1ccccc1Cl)N[C@@H](c1ccc(C(F)(F)F)cc1)c1ncccc1C(F)(F)F [Example 181, (S)-1-(2-chlorophenyl)-3-((4-(trifluoro-methyl)phenyl) (3-(trifluoro-methyl)pyridin-2-yl)methyl)urea (2,2,2-trifluoro-acetate)]	142	–	–
CCOC(=O)CNC(=O)N[C@@H](c1ccc(C(F)(F)F)cc1)c1ncccc1C(F)(F)F [Example 38, (S)-ethyl 2-(3-((4-(trifluoro-methyl)-phenyl)(3-(trifluoro-methyl)-pyridin-2-yl)-methyl)-ureido)acetate (2,2,2-trifluoro-acetate)]	1500	–	–
O=C(Nc1cccnc1)N[C@@H](c1ccc(C(F)(F)F)cc1)c1ncccc1C(F)(F)F [Example 44, (S)-1-(pyridin-3-yl)-3-((4-(trifluoro-methyl)-phenyl)(3-(trifluoro-methyl)-pyridin-2-yl)-methyl)urea]	23	74	–
O=C(Nc1ccc(F)cc1)NC(c1ccccc1)c1ccc(C(F)(F)F)cc1 (stereo not shown) [Example 171, 1-(4-Fluorophenyl)-3-(phenyl(4-(trifluoromethyl)phenyl)-methyl)urea]	915	–	–
CC(C)(C)CC(C)(C)NC(=O)N[C@@H](c1ccc(C(F)(F)F)cc1)c1ncccc1C(F)(F)F [Example 131, (S)-1-((4-(trifluoro-methyl)-phenyl)(3-(trifluoro-methyl)-pyridin-2-yl)-methyl)-3-(2,4,4-trimethylpentan-2-yl)urea (2,2,2-trifluoro-acetate)]	666	–	–
CC(C)(C)OC(=O)N[C@@H](c1ccc(OC(F)(F)F)c(F)c1)c1ncccc1F [Example 174, (S)-tert-Butyl((3-fluoro-4-(trifluoromethoxy)phenyl)(3-fluoropyridin-2-yl)methyl)carbamate]	474	–	–
O=C(Nc1cc(Cl)nc(Cl)c1)N[C@@H](c1ccc(C(F)(F)F)cc1)c1ncccc1C(F)(F)F [Example 76, (S)-1-(2,6-dichloropyridin-4-yl)-3-((4-(trifluoro-methyl)-phenyl)(3-(trifluoro-methyl)-pyridin-2-yl)-methyl)urea (2,2,2-trifluoro-acetate)]	294	–	–

Source: US8778941B2, “TRPM8 antagonists and their use in treatments” (AMGEN Inc., priority 2011, dated 2014)
